According to US20050222227A1, “Oxazole-amine compounds for the treatment of neurodegenerative disorders” (Pfizer Inc, priority 2004, published 2005):

Test system: gamma-secretase
Assay: gamma-secretase activity in a solubilized membrane preparation (cell-free assay)
Assay type: biochemical
Conditions: according to McLendon et al., read-out: IC50 activity for inhibiting gamma-secretase
Description: The activity of compounds of the Formula I of the present invention in inhibiting gamma-secretase activity may be determined in a solubilized membrane preparation generally according to the description provided in McLendon et al. Cell-free assays for γ-secretase activity, The FASEB Journal (Vol. 14, December 2000, pp. 2383-2386).

SMILES: C/C=C(\C)c1cnc(NC(=O)[C@H](CCC)NC2CCc3cc(F)cc(F)c3C2)o1 (stereo partly drawn) [Example 1, (S)-2-(5,7-difluoro-1,2,3,4-tetrahydronaphthalen-3-ylamino)-N-(5-((E)-but-2-en-2-yl)oxazol-2-yl)pentanamide]
- IC50: < 10 µM
